The test system of experiment [1] is PAF-induced hypotension. Kind of experiment: PAF-induced hypotension (Test D). The experiment is classed as in vivo, Wistar rats. How it is done: Male Wistar rats, weighing approximately 300 gm, are anesthetized and their carotid arteries cannulated to enable their diastolic and systolic arterial blood pressure measurements to be recorded. PAF is then administered intravenously at either 100 or 500 ng/kg, and the blood pressure drop (within 10 sec.) and recovery time required to reach the pre-injection blood pressure level are measured.

The target of experiment [2] is T1, Human Platelet PAF Receptor (Homo sapiens, UniProt P25105).
T1 construct: endogenous in cells; host or cells: washed intact platelets from blood of healthy human donors
Kind of experiment: Human Platelet PAF Receptor Assay test (Test A): inhibition of specific binding of [3H]-PAF to platelets. Conditions: inhibition of [3H]-PAF specific binding. How it is done: Human blood is obtained by venipuncture of healthy, human donors into an anti-coagulant mixture containing 3.15% of trisodium citrate and 20 μg/ml of Prostaglandin I2 (PGI2) in a ratio of blood to anti-coagulant of 9:1. Platelet rich plasma (PRP) is prepared by centrifugation (250×g) of the blood for 20 minutes at room temperature. The PRP is then centrifuged […] for 10 minutes at room temperature and the platelet pellet is washed two times with Tris-Tyrode's (TT) solution having a pH of 7.4 and containing 0.25% bovine serum albumin (BSA), and to which has been added PGI2 at a final concentration of […]. The platelets are resuspended at […] in TT/BSA containing 1.4 mM CaCl2.2H2 O and 0.7 mM MgCl2.6H2 O. All of the tests are conducted in duplicate and each of the test compounds is evaluated at concentrations of 100, 500, 1 and 0.1 μM. For each determination, the following solutions are mixed:
500 μl of the above-described platelets;
10 μl of [^3 H]-PAF (40,000 counts per minute (cpm) to a final concentration of […]); and either
10 μl of the test compound at 50× the desired final concentration,
10 μl of vehicle (total bound), or
10 μl of 1.85×10^-5 M cold PAF (non-specifically bound).
Each mixture is allowed to incubate at room temperature for one hour, after which time the reaction is terminated by the addition of 500 μl of ice cold TT/BSA and centrifugation (900×g) at 4° C. for 10 minutes. The resultant supernatant is aspirated into scintillation vials and the pellet is washed with […]. of ice cold TT/BSA and centrifuged (900×g) at 4° C. for 10 minutes. The supernatants are then aspirated into the same scintillation vials as before and 10 ml. of Scintiverse II (a liquid scintillation cocktail) is added to and mixed therewith. The pellets are resuspended in 500 μl of Scintiverse II and mixed well. An additional 2 ml. of Scintiverse II is then added to the vials and, after mixing, the vials are counted for 1 minute in a liquid scintillation spectrometer. The amount of specific binding is calculated as the difference in cpm between the total bound [^3 H]-PAF and non-specifically bound [^3 H]-PAF. The percent inhibition of specific binding is determined by dividing the cpm specifically bound in the presence of the test compound by the cpm specifically bound in total, multiplying by 100 and then subtracting from 100. An IC50 (50% inhibitory concentration) value is generated by evaluating the test compound over the full concentration range.

The subject of experiment [3] is PAF-mediated extravasation. Kind of experiment: PAF-induced Extravasation test (Test C), hemoconcentration. Type of experiment: in vivo, guinea pigs. The following applies: Cavia porcellus, PAF 100 ng/kg i.v., hematocrit increase.
Experiment [4] concerns PAF-mediated broncho-constriction (PAF-induced Pulmonary Inflation Pressure increase). Put plainly: PAF-induced Pulmonary Inflation Pressure (PIP) Increase test (Test B). Type of experiment: in vivo, guinea pigs. Conditions: Cavia porcellus, PAF 100 ng/kg i.v., maximal PIP. How it is done:
Male guinea pigs, weighing between 300 and 400 gm, are anesthetized, after which time trachea tube, carotid and jugular catheters are inserted. The test animal is then force ventilated employing a small animal Harvard respirator and the resistance to lung inflation (PIP) is measured utilizing a pressure transducer and recorder. The test compound is administered orally at 30 minutes prior to, intravenously (jugular) at 5 minutes prior to, or intraarterially at 1 to 5 minutes prior to the introduction of PAF. The PAF (C18 -Sandoz, Hanover) is dissolved in Tris-Tyrode's bovine serum albumin buffer and administered intravenously (jugular) at 100 ng/kg. Any blood pressure measurements taken are recorded from a transducer attached to the carotid catheter.

The test system of experiment [5] is PAF-induced human platelet aggregation. Put plainly: Platelet Aggregation Inhibition Assay test (PAIA test): inhibition of PAF-induced human platelet aggregation in vitro. Type of experiment: cell-based. The following applies: 0.1 h, platelet rich plasma, AUC over 6 min. As to the method:
All of the compounds of formula I are useful as platelet activating factor inhibitors as indicated by their ability to inhibit platelet activating factor (PAF)-induced human platelet aggregation in vitro according to the Platelet Aggregation Inhibition Assay test (PAIA test) as follows:
Human subjects are kept aspirin free for one week and fasted overnight. Platelet rich plasma (PRP) is prepared by centrifugation (200×g.) of freshly drawn blood, anti-coagulated with 0.38% sodium citrate (final concentration). Platelet count is adjusted to 250,000 per μl using platelet poor plasma (PPP) obtained by a second centrifugation (700×g.) of the blood sample. An aliquot (0.38 ml) of the PRP is dispensed into cuvettes and maintained at room temperature (22° C.) until used (but for not more than two hours). The PRP-containing cuvettes are incubated at 37° C. and stirred at 900 rpm within a Payton Aggregometer which is activated to follow the light deflection pattern prior to the addition of the test compound. […] The aggregation response is quantitated by determining the area under the curve (AUC). The AUC calculated for the inducing agent alone is considered to be one hundred percent. […]

T1 sequence (P25105 whole entry): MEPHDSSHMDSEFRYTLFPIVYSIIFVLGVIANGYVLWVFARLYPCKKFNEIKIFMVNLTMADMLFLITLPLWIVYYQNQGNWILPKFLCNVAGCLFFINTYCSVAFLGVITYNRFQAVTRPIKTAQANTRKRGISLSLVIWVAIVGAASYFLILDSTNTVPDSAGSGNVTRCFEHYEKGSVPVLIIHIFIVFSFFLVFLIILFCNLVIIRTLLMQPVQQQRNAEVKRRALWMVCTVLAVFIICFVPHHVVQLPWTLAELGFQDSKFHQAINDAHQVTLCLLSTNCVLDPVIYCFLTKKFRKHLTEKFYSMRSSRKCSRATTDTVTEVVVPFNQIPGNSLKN

With “1-0-alkyl-2-acetyl-sn-glyceryl-3-phosphoryl-choline [PAF]”, the figures for the “decrease in blood pressure” value in experiment [1] (PAF 100 ng/kg i.v.) and in experiment [1] (PAF 500 ng/kg i.v.) were 30% and 52%, respectively.
For `COc1cc([C@H]2CC[C@H](c3cc(OC)c(OC)c(OC)c3)C2O)cc(OC)c1OC` (relative stereo) [Example 3, 1α, 2α, 5β isomer, 2,5-bis(3,4,5-Trimethoxyphenyl)cyclopentanol], in experiment [2], the 50% inhibitory concentration (IC50) was found to be 4700 nM. Also, the ED50 in experiment [3] (po) and in experiment [4] (po) was over 20 mg/kg in each case.
As to `COc1cc([C@H]2CC[C@H](c3cc(OC)c(OC)c(OC)c3)C2OC)cc(OC)c1OC` (relative stereo) [Example 4, (1α,2α,5β)-2,5-bis(Trimethoxyphenyl)-1-methoxy cyclopentane], the IC50 in experiment [2] (unit printed um) worked out at 100 nM; in experiment [5] it was 880 nM. Moreover, the ED50 in experiment [1] (Rattus norvegicus, iv, PAF-induced blood pressure decrease) is 0.12 mg/kg; in experiment [3] (i.a.), 0.4 mg/kg; in experiment [4] (iv, i.a.), 0.5 mg/kg.
Consider `COc1cc([C@H]2CC[C@H](c3cc(OC)c(OC)c(OC)c3)C2N)cc(OC)c1OC` (relative stereo) [Example 10, 1α, 2α, 5β isomer, 1-Amino-2,5-bis(3,4,5-trimethoxyphenyl)cyclopentane], for which, in experiment [2], the IC50 is 2700 nM.
`COc1cc(C2=CCC(c3cc(OC)c(OC)c(OC)c3)C2=O)cc(OC)c1OC` (stereo not shown) [Example 1, 2,5-bis(3,4,5-Trimethoxyphenyl)cyclopent-2-enone] gave a half-inhibitory concentration (IC50) in experiment [2] of 6000 nM. Further, the ED50 turned out to be 1 mg/kg in experiment [3] (i.a.) and 1 mg/kg in experiment [4] (iv, i.a.).
For the compound `COc1cc(C2CCC(c3cc(OC)c(OC)c(OC)c3)C2=O)cc(OC)c1OC` (stereo not shown) [Example 2, 2,5-bis(3,4,5-Trimethoxyphenyl)cyclopentanone], in experiment [2], the IC50 was 900 nM. Besides, the ED50 in experiment [3] (po) and in experiment [4] (po) was over 20 mg/kg throughout.
In turn, `COc1cc([C@H]2CC[C@@H](c3cc(OC)c(OC)c(OC)c3)[C@H]2O)cc(OC)c1OC` [Example 3, 1α, 2α, 5α isomer, 2,5-bis(3,4,5-Trimethoxyphenyl)cyclopentanol] displayed an IC50 in experiment [2] of 2800 nM. For the same compound, the results for the 50% effective dose (ED50) in experiment [3] (po) and in experiment [4] (po) were over 20 mg/kg and about 20 mg/kg, respectively.
Take `COc1cc([C@H]2CC[C@@H](c3cc(OC)c(OC)c(OC)c3)[C@H]2OC)cc(OC)c1OC` [Example 5, (1α,2α,5α)-2,5-bis(Trimethoxyphenyl)-1-methoxy cyclopentane]: the IC50 in experiment [5] is 22000 nM.
Regarding `COc1cc(C2CCC(c3cc(OC)c(OC)c(OC)c3)C2=NO)cc(OC)c1OC` (stereo not shown) [Example 9, 2,5-bis(3,4,5-Trimethoxyphenyl)cyclopentanone, oxime], the IC50 in experiment [2] amounted to 450 nM. The ED50 in experiment [3] (po) was determined as 0.75 mg/kg; in experiment [4] (po) it was 0.87 mg/kg.
`COc1cc([C@H]2CC[C@@H](c3cc(OC)c(OC)c(OC)c3)[C@H]2N)cc(OC)c1OC` [Example 10, 1α, 2α, 5α isomer, 1-Amino-2,5-bis(3,4,5-trimethoxyphenyl)cyclopentane] displayed an IC50 in experiment [2] of 22000 nM.

Source of the values: patent publication US4845129A, “Diaryl substituted cyclopentane and cyclopentene derivatives” (Sandoz Pharm. Corp., priority 1988, dated 1989).
